This experiment has as its target T1, ITK (Homo sapiens, UniProt Q08881).
T1 sequence (Q08881 1-620): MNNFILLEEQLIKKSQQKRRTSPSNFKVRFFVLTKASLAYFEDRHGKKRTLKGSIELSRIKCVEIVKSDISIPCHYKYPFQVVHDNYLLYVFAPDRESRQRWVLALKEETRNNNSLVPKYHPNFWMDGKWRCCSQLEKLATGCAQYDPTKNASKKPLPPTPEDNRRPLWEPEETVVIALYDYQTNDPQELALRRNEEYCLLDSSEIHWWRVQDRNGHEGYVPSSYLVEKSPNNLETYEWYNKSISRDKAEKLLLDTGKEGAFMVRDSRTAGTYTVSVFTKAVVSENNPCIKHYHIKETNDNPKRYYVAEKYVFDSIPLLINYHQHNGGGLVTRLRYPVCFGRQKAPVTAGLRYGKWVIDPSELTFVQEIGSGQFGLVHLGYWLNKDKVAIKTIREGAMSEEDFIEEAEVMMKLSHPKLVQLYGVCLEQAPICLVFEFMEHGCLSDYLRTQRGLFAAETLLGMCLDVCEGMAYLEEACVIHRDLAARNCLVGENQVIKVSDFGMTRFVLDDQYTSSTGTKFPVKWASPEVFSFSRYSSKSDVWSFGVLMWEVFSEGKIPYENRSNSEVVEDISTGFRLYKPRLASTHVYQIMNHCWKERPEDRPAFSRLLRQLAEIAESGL
Briefly: ITK degradation HiBiT assay. The format is cell-based. The arrangement: expressed in transfected cells; host or cells: Molt4 (ATCC CRL-1552), monoclonal clone 1C10, engineered to carry the HiBiT tag. The conditions noted are these: 4 hrs; for DC50: C-terminal HiBiT-tagged Molt4 cells; for Dmax: MOLT-4, C-terminal HiBiT-tagged Molt4 cells. In short, it runs like this: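 C-terminal HiBiT-tagged Molt4 cells (clone 1C10) treated 4 h at 32° C with an 11-point, 5-fold compound dilution series (0.5% DMSO). HiBiT lytic detection with LgBiT then luminescence read; % ITK remaining versus concentration fit by four-parameter variable-slope model to give DC50 and Dmax.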
(In general: The HiBiT peptide binds its large partner to form an active luciferase.)

We go through 27 compounds from US20240279202A1 (NURIX THERAPEUTICS, INC., priority 2021, published 2024).

As a reminder, the DC50 is the midpoint of the concentration-degradation curve. The low end stands for a more potent degrader, the high end for a less potent degrader. A word on the Dmax: it is the largest share of the target that was removed. A low value points to shallow degradation.

`C[C@@H]1CN(C(=O)c2ccc3cc(-c4n[nH]c5c4CCC(C)(C)C5)[nH]c3c2)CCN1CC1CCN(c2ccc(C3CCC(=O)NC3=O)cn2)CC1` (stereo partly drawn) [Compound 129, 3-(6-(4-(((R)-4-(2-(6,6-dimethyl-4,5,6,7-tetrahydro-1H-indazol-3-yl)-1H-indole-6-carbonyl)-2-methylpiperazin-1-yl)methyl)piperidin-1-yl)pyridin-3-yl)piperidine-2,6-dione]: the DC50 turned out to be 4.9 nM and the Dmax was 81%.

In the case of `C[C@H]1CN(CC2CCN(c3ccc(C4CCC(=O)NC4=O)cn3)CC2)CCN1C(=O)c1ccc2cc(-c3n[nH]c4c3CCC(C)(C)C4)[nH]c2c1` (stereo partly drawn) [Compound 130, 3-(6-(4-(((S)-4-(2-(6,6-dimethyl-4,5,6,7-tetrahydro-1H-indazol-3-yl)-1H-indole-6-carbonyl)-3-methylpiperazin-1-yl)methyl)piperidin-1-yl)pyridin-3-yl)piperidine-2,6-dione], the DC50 was determined as 5.5 nM and the Dmax turned out to be 85%.

As for `C[C@H]1CN(C(=O)c2ccc3cc(-c4n[nH]c5c4CCC(C)(C)C5)[nH]c3c2)CCN1CC1CCN(c2ccc(C3CCC(=O)NC3=O)cn2)CC1` (stereo partly drawn) [Compound 131, 3-(6-(4-(((S)-4-(2-(6,6-dimethyl-4,5,6,7-tetrahydro-1H-indazol-3-yl)-1H-indole-6-carbonyl)-2-methylpiperazin-1-yl)methyl)piperidin-1-yl)pyridin-3-yl)piperidine-2,6-dione], the DC50 was 0.5 nM and the Dmax came to 84%.

As to `C[C@@H]1CN(CC2CCN(c3ccc(C4CCC(=O)NC4=O)cn3)CC2)CCN1C(=O)c1ccc2cc(-c3n[nH]c4c3CCC(C)(C)C4)[nH]c2c1` (stereo partly drawn) [Compound 132, 3-(6-(4-(((R)-4-(2-(6,6-dimethyl-4,5,6,7-tetrahydro-1H-indazol-3-yl)-1H-indole-6-carbonyl)-3-methylpiperazin-1-yl)methyl)piperidin-1-yl)pyridin-3-yl)piperidine-2,6-dione], the DC50 came out at 7 nM and the Dmax amounted to 82%.

`CC1(C)CCc2c(-c3cc4ccc(C(=O)N5CCN(CC6CCN(c7ccc(C8CCC(=O)NC8=O)cn7)CC6)C(C)(C)C5)cc4[nH]3)n[nH]c2C1` (stereo not shown) [Compound 133, 3-(6-(4-((4-(2-(6,6-dimethyl-4,5,6,7-tetrahydro-1H-indazol-3-yl)-1H-indole-6-carbonyl)-2,2-dimethylpiperazin-1-yl)methyl)piperidin-1-yl)pyridin-3-yl)piperidine-2,6-dione] displayed a DC50 of 1.6 nM and a Dmax of 86%.

Regarding `C[C@@]12Cc3[nH]nc(-c4cc5ccc(C(=O)N6CCN(CC7CCN(c8ccc(C9CCC(=O)NC9=O)cc8)CC7)CC6)cc5[nH]4)c3C[C@@H]1C2(F)F` (stereo partly drawn) [Compound 135, 3-(4-(4-((4-(2-((4aS,5aR)-5,5-difluoro-5a-methyl-1,4,4a,5,5a,6-hexahydrocyclopropa[f]indazol-3-yl)-1H-indole-6-carbonyl)piperazin-1-yl)methyl)piperidin-1-yl)phenyl)piperidine-2,6-dione], the DC50 was under 0.01 nM and the maximal degradation (Dmax) worked out at 85%.

`CC1(C)CCc2c(-c3cc4cc(F)c(C(=O)N5CCN(CC6CCN(c7ccc(C8CCC(=O)NC8=O)cn7)CC6)CC5)cc4[nH]3)n[nH]c2C1` (stereo not shown) [Compound 136, 3-(6-(4-((4-(2-(6,6-dimethyl-4,5,6,7-tetrahydro-1H-indazol-3-yl)-5-fluoro-1H-indole-6-carbonyl)piperazin-1-yl)methyl)piperidin-1-yl)pyridin-3-yl)piperidine-2,6-dione]: it took 0.45 nM to reach half-maximal degradation (DC50) and the Dmax is 80%.

Compound `CC1(C)CCc2c(-c3cc4cc(F)c(C(=O)N5CCN(CC6CCN(c7ccc(C8CCC(=O)NC8=O)cc7)CC6)CC5)cc4[nH]3)n[nH]c2C1` (stereo not shown) [Compound 137, 3-(4-(4-((4-(2-(6,6-dimethyl-4,5,6,7-tetrahydro-1H-indazol-3-yl)-5-fluoro-1H-indole-6-carbonyl)piperazin-1-yl)methyl)piperidin-1-yl)phenyl)piperidine-2,6-dione] showed a DC50 of 4.4 nM and a Dmax of 81%.

`C[C@@]12Cc3[nH]nc(-c4cc5cc(F)c(C(=O)N6CCN(CC7CCN(c8ccc(C9CCC(=O)NC9=O)cc8)CC7)CC6)cc5[nH]4)c3C[C@@H]1C2(F)F` (stereo partly drawn) [Compound 138, 3-(4-(4-((4-(2-((4aS,5aR)-5,5-difluoro-5a-methyl-1,4,4a,5,5a,6-hexahydrocyclopropa[f]indazol-3-yl)-5-fluoro-1H-indole-6-carbonyl)piperazin-1-yl)methyl)piperidin-1-yl)phenyl)piperidine-2,6-dione] had a DC50 of 0.076 nM and a Dmax of 83%.

`C[C@@]12Cc3[nH]nc(-c4cc5ccc(C(=O)N6CCN(CC7CCN(c8ccc(C(=O)N[C@H]9CCC(=O)NC9=O)nc8)CC7)CC6)cc5[nH]4)c3C[C@@H]1C2(F)F` [Compound 139, 5-(4-((4-(2-((4aS,5aR)-5,5-difluoro-5a-methyl-1,4,4a,5,5a,6-hexahydrocyclopropa[f]indazol-3-yl)-1H-indole-6-carbonyl)piperazin-1-yl)methyl)piperidin-1-yl)-N—((S)-2,6-dioxopiperidin-3-yl)picolinamide] displayed a DC50 of 0.8 nM and a Dmax of 81%.

Turning to `COC[C@@]1(C)CCc2c(-c3cc4ccc(C(=O)N5CCN(CC6CCN(c7ccc(C8CCC(=O)NC8=O)cc7)CC6)CC5)cc4[nH]3)n[nH]c2C1` (stereo partly shown) [Compound 140], the Dmax is 84%.

Regarding `C[C@@]12Cc3[nH]nc(-c4cc5cc(C(=O)N6CCN(CC7(F)CCN(c8ccc(C9CCC(=O)NC9=O)cc8)CC7)CC6)ccc5[nH]4)c3C[C@@H]1C2(F)F` (stereo partly shown) [Compound 141], the Dmax is 86%.

Compound `C[C@@]12Cc3[nH]nc(-c4cc5cc(C(=O)N6CCN(CC7CCN(c8ccc(C(=O)N[C@H]9CCC(=O)NC9=O)nc8)CC7)CC6)ccc5[nH]4)c3C[C@@H]1C2(F)F` [Compound 142] yielded a Dmax of 80%.

Compound `C[C@@]12Cc3[nH]nc(-c4cc5cc(C(=O)N6CCN(C[C@@H]7CCN(c8ccc(C9CCC(=O)NC9=O)cc8)C7)CC6)ccc5[nH]4)c3C[C@@H]1C2(F)F` (stereo partly shown) [Compound 143] had a Dmax of 81%.

In turn, `C[C@@]12Cc3[nH]nc(-c4cc5cc(F)c(C(=O)N6CCN(CC7CCN(c8ccc(C(=O)N[C@H]9CCC(=O)NC9=O)nc8)CC7)CC6)cc5[nH]4)c3C[C@@H]1C2(F)F` [Compound 144] registered a Dmax of 78%.

`C[C@@]12Cc3[nH]nc(-c4cc5cc(F)c(C(=O)N6CCN(C[C@H]7CCN(c8ccc(C9CCC(=O)NC9=O)cc8)C7)CC6)cc5[nH]4)c3C[C@@H]1C2(F)F` (stereo partly shown) [Compound 145] showed a Dmax of 75%.

`C[C@@]12Cc3[nH]nc(-c4cc5cc(F)c(C(=O)N6CCN(C[C@@H]7CCN(c8ccc(C9CCC(=O)NC9=O)cc8)C7)CC6)cc5[nH]4)c3C[C@@H]1C2(F)F` (stereo partly shown) [Compound 146] returned a Dmax of 73%.

Compound `C[C@@]12Cc3[nH]nc(-c4cc5cc(C(=O)N6CCN(C[C@H]7CCN(c8ccc(C9CCC(=O)NC9=O)cc8)C7)CC6)ccc5[nH]4)c3C[C@@H]1C2(F)F` (stereo partly shown) [Compound 147] returned a Dmax of 81%.

`C[C@@H]1CN(C(=O)c2ccc3cc(-c4n[nH]c5c4CCC(C)(C)C5)[nH]c3c2)CCN1CC1CCN(c2ccc(C3CCC(=O)NC3=O)cc2)CC1` (stereo partly shown) [Compound 156] had a Dmax of 84%.

In turn, `C[C@@H]1CN(C(=O)c2ccc3cc(-c4n[nH]c5c4CCC(C)(C)C5)[nH]c3c2)C[C@H](C)N1CC1CCN(c2ccc(C3CCC(=O)NC3=O)cc2)CC1` (stereo partly shown) [Compound 157] returned a Dmax of 84%.

`C[C@@H]1CN(C(=O)c2ccc3cc(-c4n[nH]c5c4C[C@@H]4C(F)(F)[C@]4(C)C5)[nH]c3c2)C[C@H](C)N1CC1CCN(c2ccc(C3CCC(=O)NC3=O)cc2)CC1` (stereo partly shown) [Compound 158] had a Dmax of 88%.

The compound `C[C@@H]1CN(C(=O)c2ccc3cc(-c4n[nH]c5c4C[C@@H]4C(F)(F)[C@]4(C)C5)[nH]c3c2)CCN1CC1CCN(c2ccc(C3CCC(=O)NC3=O)cc2)CC1` (stereo partly shown) [Compound 159] returned a Dmax of 84%.

On to `C[C@@H]1CN(C(=O)c2ccc3cc(-c4n[nH]c5c4C[C@@H]4C(F)(F)[C@]4(C)C5)[nH]c3c2)CCN1CC1CCN(c2ccc(C3CCC(=O)NC3=O)c(F)c2)CC1` (stereo partly shown) [Compound 160], for which the Dmax was 83%.

The compound `C[C@@H]1CN(C(=O)c2ccc3cc(-c4n[nH]c5c4C[C@@H]4C(F)(F)[C@]4(C)C5)[nH]c3c2)CCN1CC1CCN(c2ccc(C3CCC(=O)NC3=O)cc2F)CC1` (stereo partly shown) [Compound 161] returned a Dmax of 85%.

With `C[C@@]12Cc3[nH]nc(C(=O)Nc4cnn(CC5CCN(C(=O)C6CCN(c7ccc(N8CCC(=O)NC8=O)cc7)CC6)CC5)c4)c3C[C@@H]1C2(F)F` [Compound 172], the Dmax worked out at 75%.

In the case of `Cc1nc(N2CCC(CN3CCN(C(=O)c4ccc5cc(-c6n[nH]c7c6CCC(C)(C)C7)[nH]c5c4)CC3)CC2)ccc1C1CCC(=O)NC1=O` (stereo not shown) [Compound 181], the Dmax came out at 61%.

`Cc1cc(N2CCC(CN3CCN(C(=O)c4ccc5cc(-c6n[nH]c7c6CCC(C)(C)C7)[nH]c5c4)CC3)CC2)ccc1C1CCC(=O)NC1=O` (stereo not shown) [Compound 182] showed a Dmax of 70%.
